# Laboratory results from US20250218201A1, “ANALYZING PHENOTYPES OF CELLS” (priority 2023, published 2025).
# Experiments:
# Type in all cases: cell-based
# [1] = Annexin V / SYTOX AADvanced flow cytometry of cell death states; conditions: human, read-out: viable cells (flow cytometry, Annexin V/SYTOX staining)
# Method: (§1) The REM-I platform was used to obtain images of cells at different states of dying than one another. More specifically, live, viable Jurkat (T Lymphocyte), Clone E6-1 cells were cultured in RPMI-1640 medium (ThermoFisher Scientific) with 10% fetal bovine serum (FBS) at 37° C. with 5% CO2. A suspension of the cells was prepared at a concentration of 2×10^6 cells/mL for apoptosis and necrosis induction. The following treatments were used to induce cell death (e.g., via apoptosis or necrosis) in different samples of the suspension.
# (§2) Sample 2: Camptothecin (ab120115, Abcam), a DNA topoisomerase inhibitor, was administered to the suspension of Jurkat cells at a final concentration of 10 μM and incubated at 37° C. with 5% CO2 for six hours to induce apoptosis by perturbing topoisomerase I.
# (§3) Sample 3: Staurosporine (ab120056, Abcam), a protein kinase inhibitor, was administered to the suspension of Jurkat cells at a final concentration of 2 μM and incubated at 37° C. with 5% CO2 for either three hours or for eighteen hours to induce apoptosis by G2/M cell cycle arrest.
# (§4) Following treatment, each of the samples was split into two aliquots, one for use in REM-I morphology profiling and one for use in flow cytometry assessment. For morphology profiling, treated cells at a concentration of 3×10^6 cells per mL in a single cell suspension were run on the REM-I platform with a flow rate of about 300 cells/second, and more than about 40,000 images were captured. The data suite 190, described with reference to FIG. 1, was trained using the multi-dimensional feature vectors from the cells and used to generate reduced-dimensionality plots which will be described with reference to FIGS. 16, 17, and 18. For flow cytometry, 1×10^6 treated cells in 100 μL were incubated with 5 μL of PACIFIC BLUE™ Annexin V stock (per manufacturer recommendation) and 1 μL of SYTOX™ AADVANCED™ (A35136, ThermoFisher) for 30 minutes at room temperature and then analyzed with the BD FACSMELODY™ cell sorter and BD FACSCHORUS™ software (BD Biosciences, California).
# [2] = test system: Jurkat (T Lymphocyte), Clone E6-1 cells; assay: as above
# Method: as §1, §2, §3, §4
# [3] = test system: Jurkat (T Lymphocyte), Clone E6-1 cells; assay: REM-I label-free high-dimensional morphology profiling (UMAP); conditions: 10 μM camptothecin, 6 hours, unstained brightfield images
# Method: as §1
# Sample 2: Camptothecin (ab120115, Abcam), a DNA topoisomerase inhibitor, was administered to the suspension of Jurkat cells at a final concentration of 10 μM and incubated at 37° C. with 5% CO2 for six hours to induce apoptosis by perturbing topoisomerase I. […]
# Following treatment, each of the samples was split into two aliquots, one for use in REM-I morphology profiling and one for use in flow cytometry assessment. […] For flow cytometry, 1×10^6 treated cells in 100 μL were incubated with 5 μL of PACIFIC BLUE™ Annexin V stock (per manufacturer recommendation) and 1 μL of SYTOX™ AADVANCED™ (A35136, ThermoFisher) for 30 minutes at room temperature and then analyzed with the BD FACSMELODY™ cell sorter and BD FACSCHORUS™ software (BD Biosciences, California).
# [4] = 2 μM staurosporine, eighteen hours
# [5] = 2 μM staurosporine, three hours
Structure (SMILES),"viability at 6 h, 10 μM ([1]; Jurkat (T lymphocyte), Clone E6-1 cells, 10 μM camptothecin, six hours, 37° C.) [%]","apoptotic cells (flow cytometry, Annexin V/SYTOX staining) ([2]; 10 μM camptothecin, six hours, 37° C.) [%]",morphological profile on UMAP compared to healthy cells of Sample 1 [3],"viability at 3 h, 2 μM ([1]; Jurkat cells, 2 μM staurosporine, three hours) [%]","dead cells (flow cytometry, Annexin V/SYTOX staining) [2, 4] [%]","necrotic cells (flow cytometry, Annexin V/SYTOX staining) [2, 4] [%]","apoptotic cells (flow cytometry, Annexin V/SYTOX staining) [2, 5] [%]","dead cells (flow cytometry, Annexin V/SYTOX staining) [2, 5] [%]","necrotic cells (flow cytometry, Annexin V/SYTOX staining) [2, 5] [%]"
"CC[C@@]1(O)C(=O)OCc2c1cc1n(c2=O)Cc2cc3ccccc3nc2-1 [Sample 2, Camptothecin]",71,28.7,morphological shift in the main population,,,,,,
"CN[C@@H]1C[C@H]2O[C@@](C)([C@@H]1OC)n1c3ccccc3c3c4c(c5c6ccccc6n2c5c31)C(=O)NC4 [staurosporine, Staurosporine]",,,,14.5,12.4,85.0,6.96,14.1,64.5
